Reference: article PMC4270767 (PLoS ONE, 2014)
Values joined by “and” are separate entries in the source; they are usually repeats but may differ in a detail not shown here. Equal values may be shown once. Where a name gives a salt, the structure may show the parent alone. Read-outs that look alike come from different tables or passages of the source.

Assays:
[1] = biological target: PSP domain of MtSerB2 (PSPD) (Mycobacterium tuberculosis, UniProt O53289); assay: biochemical; design: species or system M. tuberculosis
Sequence of PSP domain of MtSerB2 (PSPD) (O53289 165-409 limits assumed): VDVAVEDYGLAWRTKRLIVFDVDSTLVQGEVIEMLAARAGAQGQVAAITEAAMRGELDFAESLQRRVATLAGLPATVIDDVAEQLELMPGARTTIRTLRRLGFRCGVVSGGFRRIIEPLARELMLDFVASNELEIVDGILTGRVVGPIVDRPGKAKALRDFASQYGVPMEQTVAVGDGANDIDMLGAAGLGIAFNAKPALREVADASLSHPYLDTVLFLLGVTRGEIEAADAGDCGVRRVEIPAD

MtSerB2 [2] = biological target: T1, MtSerB2 (Mycobacterium tuberculosis, UniProt O53289); assay: Inhibition of MtSerB2 hydrolysis of L-phosphoserine (malachite green); assay type: biochemical, M. tuberculosis
T1 sequence (O53289 whole entry): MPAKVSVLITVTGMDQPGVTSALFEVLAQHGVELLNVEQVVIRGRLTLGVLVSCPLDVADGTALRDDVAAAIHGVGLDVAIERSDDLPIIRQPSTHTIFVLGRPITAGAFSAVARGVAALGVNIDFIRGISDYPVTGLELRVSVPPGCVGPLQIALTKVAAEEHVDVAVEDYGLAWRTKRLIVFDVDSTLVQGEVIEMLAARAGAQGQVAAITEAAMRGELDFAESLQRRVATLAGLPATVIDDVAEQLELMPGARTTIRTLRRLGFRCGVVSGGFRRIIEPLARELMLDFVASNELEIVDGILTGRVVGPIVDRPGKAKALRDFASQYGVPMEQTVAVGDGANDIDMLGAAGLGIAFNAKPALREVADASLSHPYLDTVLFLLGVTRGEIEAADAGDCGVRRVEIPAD

MtSerB2 [3] = biological target: T1, MtSerB2; assay: Effects of added amino acids on MtSerB2 phosphatase activity; assay type: biochemical, M. tuberculosis; settings: for % activation or IC50: amino acids without effect
MtSerB2 [4] = biological target: T1, MtSerB2; assay type: biochemical, M. tuberculosis; settings: for effect of divalent cation on MtSerB2 activity: relative to Mg^2+
MtSerB2 [5] = biological target: T1, MtSerB2; settings: Superdex S200, samples pre-equilibrated 1 h

## NC(CP(=O)(O)O)C(=O)O (racemic) [D,L- AP3, DL-2-Amino-3-Phosphonopropionic Acid]
[1]
  Imax (%) PSPD: 19%
MtSerB2 [2]
  Imax (%) SerB2: 22%

## C[C@H](N)C(=O)O [Ala]
MtSerB2 [3]
  Activation factor: Inhibition
  IC50: 3830 ± 234 µM

## N=C(N)NCCC[C@H](N)C(=O)O [Arg]
MtSerB2 [3]
  Activation factor: Inhibition
  IC50: 632 ± 14 µM

## NC(=O)C[C@H](N)C(=O)O [Asn]
MtSerB2 [3]
  Activation factor: Non modulator
  % activation or IC50: No Change

## N[C@@H](CC(=O)O)C(=O)O [Asp]
MtSerB2 [3]
  Activation factor: Inhibitor
  IC50: 1620 ± 84 µM

## [Ca+2].[Cl-].[Cl-] [Ca^2+]
MtSerB2 [4]
  effect of divalent cation on MtSerB2 activity: deactivates

## CN(C)CCCN1c2ccccc2Sc2ccc(Cl)cc21 [Chlorpromazine, Chlorpromazine Hydrochloride]
[1]
  Imax (%) PSPD: 95%
[1]; IC50 (µM) PSPD
  IC50: ~6.25 µM and 6.25 µM
MtSerB2 [2]
  Imax (%) SerB2: 70%
  Inhibition of phosphatase activity: inhibition at nanomolar concentrations
  type of inhibition: non-competitive
MtSerB2 [2]; read-out: IC50 (µM) SerB2
  IC50: 0.92 ± 0.1 µM

## [Co+2] [Co^2+]
MtSerB2 [4]
  effect of divalent cation on MtSerB2 activity: deactivates

## N[C@@H](CS)C(=O)O [Cys]
MtSerB2 [3]
  Activation factor: Non Modulator
  % activation or IC50: No Change

## O=C(O)CN(CCN(CC(=O)O)CC(=O)O)CC(=O)O [EDTA]
MtSerB2 [2]
  Inhibition of phosphatase activity: decrease of enzyme activity

## NC(=O)CC[C@H](N)C(=O)O [Gln]
MtSerB2 [3]
  Activation factor: Inhibition
  IC50: 432 ± 13 µM

## N[C@@H](CCC(=O)O)C(=O)O [Glu]
MtSerB2 [3]
  Activation factor: Inhibition
  IC50: 363 ± 20 µM

## NCC(=O)O [Gly]
MtSerB2 [3]
  Activation factor: Inhibition
  IC50: 381 ± 15 µM

## N[C@@H](Cc1c[nH]cn1)C(=O)O [His]
MtSerB2 [3]
  Activation factor: Inhibition
  IC50: 4860 ± 218 µM

## CC[C@H](C)[C@H](N)C(=O)O [Ile]
MtSerB2 [3]
  Activation factor: Non modulator
  % activation or IC50: No Change

## N[C@@H](CP(=O)(O)O)C(=O)O [L- AP3, L-2-amino-3-phosphonopropionate]
[1]
  Imax (%) PSPD: 21%
MtSerB2 [2]
  Imax (%) SerB2: 23%

## N[C@@H](CO)C(=O)O [L-serine]
[1]
  Imax (%) PSPD: 70%
[1]; IC50 (µM) PSPD
  IC50: 824 ± 39 µM
MtSerB2 [2]
  IC50: 0.78 ± 0.08 µM
  Imax (%) SerB2: 65%
MtSerB2 [3]
  Activation factor: Inhibition
MtSerB2 [5]
  molar ratio of L-serine and MtSerB2 at shift of dimer to tetramer (higher order oligomer): ~0.8

## CC(C)C[C@H](N)C(=O)O [Leu]
MtSerB2 [3]
  Activation factor: Non modulator
  % activation or IC50: No Change

## NCCCC[C@H](N)C(=O)O [Lys]
MtSerB2 [3]
  % activation: 40%
  Activation factor: Activation

## CSCC[C@H](N)C(=O)O [Met]
MtSerB2 [3]
  Activation factor: Non modulator
  % activation or IC50: No Change

## [Mn+2] [Mn^2+]
MtSerB2 [4]
  effect of divalent cation on MtSerB2 activity: deactivates

## [F-].[Na+] [NaF, Sodium fluoride]
[1]
  Imax (%) PSPD: 72%
[1]; read-out: IC50 (µM) PSPD
  IC50: 2780 ± 216 µM
MtSerB2 [2]
  Imax (%) SerB2: 55%
  Inhibition of phosphatase activity: decrease of enzyme activity
MtSerB2 [2]; read-out: IC50
  IC50: ~3000 µM
MtSerB2 [2]; read-out: IC50 (µM) SerB2
  IC50: 3110 ± 155 µM

## [Ni+2] [Ni^2+]
MtSerB2 [4]
  effect of divalent cation on MtSerB2 activity: deactivates

## C=C1[C@@H](O)[C@@H]2O[C@]3(CC[C@H](/C=C/[C@@H](C)[C@@H]4CC(C)=C[C@@]5(O[C@H](C[C@@](C)(O)C(=O)O)CC[C@H]5O)O4)O3)CC[C@H]2O[C@@H]1[C@@H](O)C[C@H](C)[C@H]1O[C@@]2(CCCCO2)CC[C@H]1C [Okadaic acid]
[1]
  Imax (%) PSPD: 22%
MtSerB2 [2]
  Imax (%) SerB2: 14%
  Inhibition of phosphatase activity: not able to inhibit the phosphatase activity

## N[C@@H](Cc1ccccc1)C(=O)O [Phe]
MtSerB2 [3]
  Activation factor: Activation

## C[N+](C)(C)CCOP(=O)(O)O [Phosphorylcholine]
[1]
  Imax (%) PSPD: 14%
MtSerB2 [2]
  Imax (%) SerB2: 10%

## O=C(O)[C@@H]1CCCN1 [Pro]
MtSerB2 [3]
  Activation factor: Inhibition
  IC50: > 5000 µM

## C[C@@H](O)[C@H](N)C(=O)O [Thr]
MtSerB2 [3]
  Activation factor: Inhibition
  IC50: 3460 ± 206 µM

## N[C@@H](Cc1c[nH]c2ccccc12)C(=O)O [Trp]
MtSerB2 [3]
  Activation factor: Inhibition
  IC50: 322 ± 23 µM

## N[C@@H](Cc1ccc(O)cc1)C(=O)O [Tyr]
MtSerB2 [3]
  Activation factor: Activation

## CC(C)[C@H](N)C(=O)O [Val]
MtSerB2 [3]
  Activation factor: Inhibition
  IC50: 3660 ± 212 µM

## [Zn+2] [Zn^2+]
MtSerB2 [4]
  concentration level of inhibition: inhibits the activity at nanomolar levels
  effect of divalent cation on MtSerB2 activity: deactivates

## C[N+](C)(C)CCOP(=O)([O-])OCC(O)CO (stereo not drawn) [α-GPC, α-Glycerophosphorylcholine]
[1]
  Imax (%) PSPD: 31%
MtSerB2 [2]
  Imax (%) SerB2: 35%

## Sodium Vanadate
[1]
  Imax (%) PSPD: 93%
MtSerB2 [2]
  Imax (%) SerB2: 88%
